One experiment relates to CLP. The experiment can be described thus: Single cell culture of TLR ligand pre-treated CLP on OP9 stromal cells. The format is cell-based, mouse. Conditions: 24 h pre-treatment, 10 days on OP9. As for the experimental part: FIG. 7—Altered differentiation patterns of single lymphoid progenitors activated via TLRs. Sorted CLP were cultured in the presence of SCF, FL and IL-7 with medium alone, LPS (10 μg/ml) or Pam3CSK4 (1 μg/ml). After 24 h, cultured cells were harvested and washed three times with medium. Single cultured cells were then sorted and re-cultured on OP9 stromal cells in 96-well plates for 10 days in the presence of SCF, FL and IL-7. Positive colonies were examined by flow cytometry (representative examples shown on top row). The frequencies of wells with each of these differentiation patterns are shown along with total numbers of clones observed.
Single cell culture on OP9 stromal cells. Sorted CLP were cultured with X-VIVO15in the presence of SCF (20 ng/ml), FL (100 ng/ml) and IL-7 (1 ng/ml) with or without LPS (10 μg/ml), or Pam3CSK4 (1 μg/ml). After 24 h, cultured cells were harvested and washed with medium three times. A single cell sorting for the cultured cells was then conducted on a FACSAria™ and a single cell was plated on OP9 stromal cells in 96-well plate and cultured for 10 days in the presence of SCF (20 ng/ml), FL (100 ng/ml) and IL-7 (1 ng/ml). […] Positive wells (more than 30 cells) were determined by microscopic observation. Cells were harvested and then stained with mAbs to CD19, CD11c, and Mac-1 and analyzed by flow cytometry. […]

A further experiment has as its system LKS^− cells. The experiment can be described thus: Serum-free culture of LKS- myeloid/erythroid progenitors (and CMP, GMP subsets), F4/80 by flow cytometry. Conditions: 72 h, compared with CSF stimulation. It counts as cell-based, mouse. Here is the method: FIGS. 4A-D—Activation of TLRs through MyD88 bypasses normal differentiation cues and drives monocytes/macrophages differentiation of myeloid progenitors. (FIG. 4A) Sorted LKS^− cells from C57BL/6 or MyD88^−/− mice were stimulated with medium alone, LPS (10 μg/ml), Pam3CSK4 (1 μg/ml), M-CSF, or GM-CSF. After 72 h in culture, cells were analyzed by flow cytometry for expression of F4/80. Open histograms depict staining with the isotype matched Ab for F4/80. Percentages given in each histogram indicate the frequencies of F4/80^+ cells and the results are representative of three independent experiments. (FIG. 4B) The bar graph depicts yields, i.e., numbers of F4/80^+ cell recovered per input progenitor. Data represent mean values with standard deviations from triplicate cultures and the results are representative of three independent experiments (*P<0.005). […] After 72 h in culture, cells were analyzed by flow cytometry for expression of F4/80. […] After 24 or 48 h in culture, cells were analyzed by flow cytometry for expression of F4/80. […]
FIG. 13—TLR stimulation causes rapid production of F4/80^+ cells from LKS^− cells. […] Stimulated wells were analyzed after 24 h or 48 h of culture by flow cytometry for expression of F4/80. […]

Take Pam3CSK4: in the experiment on CLP, the “Numbers of pure CD19+ B cell clones” value is on record as “did not alter the production of CD19^+ B cell clones” and the “Numbers of pure mDC colonies” value was “enhanced production of colonies with pure mDC”. In addition, the “Yields of F4/80+ cells from LKS- cells” value with LKS^− cells is reported as “consistently a less potent stimulus”.

Source of the values: patent US7592003B2, “Regulation of toll-like receptors on stem cells” (Oklahoma Medical Research Foundation, priority 2005, dated 2009).
